Values after ≈ are worked out from the molar mass of the structure shown.
Legend:
[1] = Determination of kinetic solubility (pH 7.4); assay type: physicochemical; conditions: phosphate buffer, pH 7.4, aqueous buffer, kinetic from dmso stock, 50 mM phosphate buffer pH 7.4, read-out: Ksol, pH 7.4
Method: 490 μL of a 50 mM phosphate buffer (pH 7.4) was added to the sample solution. The mixture was vortexed for at least 2 minutes. The vial was shaken on a Barnstead shaker at 800 rpm at room temperature for 2 hours. The vial was centrifuged at 4000 rpm for 20 minutes. The Mini-UniPrep vial was compressed to prepare a filtrate, which was injected into an HPLC-UV and LC-MS/MS system. Kinetic solubility was calculated by referencing sample peak areas to a standard calibration curve.

[2] = Determination of logD (1-octanol / phosphate buffer pH 7.4); assay type: physicochemical; conditions: 1-octanol/phosphate buffer, pH 7.4, pH 7.4, 1-octanol/phosphate buffer; read-out: Log D, pH 7.4
Method: Preparation of phosphate buffer saturated with 1-octanol: 10 mL of 100 mM phosphate buffer (pH 7.4) was added to 100 mL of 1-octanol. The mixture was shaken vigorously and left to stand at room temperature overnight.
Preparation of 1-octanol saturated with phosphate buffer: 10 mL of 1-octanol was added to 100 mL of 100 mM phosphate buffer (pH 7.4). The mixture was shaken vigorously and left to stand at room temperature overnight.
149 μL of phosphate buffer saturated with 1-octanol was added into 1st sample tube. 149 μL of 1-octanol saturated with phosphate buffer was added into the 2nd sample tube. The sample tubes were mixed vigorously and shaken for 1 hour at a speed of 800 rpm at room temperature. The sample tubes were subjected to centrifugation at 4000 rpm for 5 minutes at room temperature. Samples of the supernatant were taken from both tubes, diluted with an appropriate LCMS buffer, and analyzed on an LCMS instrument. LogD was calculated according to the following equation.

[3] = molecular target: KRAS G12C (GMPPNP-loaded) and cRAF (Ras-binding domain) interaction (Homo sapiens (Human), UniProt P01116, C118S/C51S/C80L/G12C); experiment: Inhibition of KRAS G12C and cRAF binding (AlphaScreen); conditions: KRAS G12C loaded with GMPPNP, cRaf RBD, 2 hours preincubation; read-out: Raf-1 RBD K-Ras IC50
Method: Compounds were diluted in 100% DMSO and each compound concentration was spotted at 200 nl/well onto low volume, white 384 well plates. […] KRAS G12C was preloaded with the GTP analogue Guanosine 5′-[β,γ-imido]triphosphate (GMPPNP). The KRAS G12C was diluted in 25 mM Hepes, pH 7.4, 150 mM NaCl, 5 mM MgCl2, 0.01% TritonX-100 and 10 μM GMPPNP and added at 10 ul/well to compound-spotted plates resulting in a DMSO concentration of 2%. Plates were incubated for 2 hours. A mixture of RBD and the AlphaScreen streptavidin donor and glutathione acceptor beads diluted in 25 mM Hepes, pH 7.4, 150 mM NaCl, 5 mM MgCl2, 0.01% TritonX-100 and 2% DMSO was then added at 10 ul/well and incubated for 60-90 minutes before the samples were read for emission at 570 nm after excitation of the donor beads at 680 nm. All incubations were performed at room temperature. The final top compound concentration was 50 μM with 1:3 titrations for 10-point dose response curves. […] IC50S were determined using nonlinear regression fit of [inhibitor] vs. response (4 parameters). […]

KRAS G12C (GMPPNP-loaded) and cRAF (Ras-binding domain) interaction, sequence (P01116 other isoform, or with tags, fused parts or gaps G12C/C51S/C80L/C118S): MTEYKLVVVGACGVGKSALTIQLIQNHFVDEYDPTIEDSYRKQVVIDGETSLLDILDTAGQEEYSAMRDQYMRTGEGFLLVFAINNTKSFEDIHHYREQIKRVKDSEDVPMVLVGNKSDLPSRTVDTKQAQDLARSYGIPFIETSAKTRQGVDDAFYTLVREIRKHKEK

solubility kinetic at 2 h [1] [µg/mL] | logD [2] | IC50 [3] [µM] | SMILES
124 (≈ 157 µM) | 3.68 | < 0.01 | C[C@@H]1CN(C/C=C/C(=O)N2CCN(c3nc(OC[C@@]45CCCN4C[C@H](F)C5)nc4c(F)c(-c5cccc(Cl)c5C(F)(F)F)ncc34)C[C@@H]2CC#N)C[C@@H](C)O1 [Compound 307]
102 (≈ 141 µM) | 2.91 | 0.01 to 0.1 | N#CC[C@H]1CN(c2nc(OC[C@@]34CCCN3C[C@H](F)C4)nc3c(F)c(-c4cccc5cccc(F)c45)ncc23)CCN1C(=O)/C=C/CN1CCOCC1 [Compound 233]
74.7 (≈ 108 µM) | 2.84 | > 0.5 | Cc1nnc(/C=C/C(=O)N2CCN(c3nc(OCC45CCCN4CCC5)nc4c3CCN(c3cccc5cccc(Cl)c35)C4)C[C@@H]2CC#N)[nH]1 [Compound 29]
71.1 (≈ 92.2 µM) | 3.38 | < 0.01 | N#CC[C@H]1CN(c2nc(OC[C@@]34CCCN3C[C@H](F)C4)nc3c(F)c(-c4cccc5ccc(F)c(F)c45)ncc23)CCN1C(=O)/C=C/CN1CC2CCC(C1)O2 [Compound 249]
147 (≈ 191 µM) | 2.92 | < 0.01 | N#CC[C@H]1CN(c2nc(OC[C@@]34CCCN3C[C@H](F)C4)nc3c(F)c(-c4cccc5cccc(Cl)c45)ncc23)CCN1C(=O)/C=C/CN1C[C@@H]2CC[C@H]1CO2 [Compound 259]
141 (≈ 182 µM) | 2.79 | 0.01 to 0.1 | CO[C@H]1CCN(C/C=C/C(=O)N2CCN(c3nc(OC[C@@]45CCCN4C[C@H](F)C5)nc4c(F)c(-c5cccc(Cl)c5C(F)(F)F)ncc34)C[C@@H]2CC#N)C1 [Compound 309]
103 (≈ 138 µM) | 2.52 | < 0.01 | N#CC[C@H]1CN(c2nc(OCC34CCCN3CCC4)nc3c(F)c(-c4cccc5cccc(Cl)c45)ncc23)CCN1C(=O)/C=C/c1nc(C(F)F)no1 [Compound 27]
50 (≈ 66.7 µM) | 3.73 | 0.1 to 0.5 | CC(C)(C)c1noc(/C=C/C(=O)N2CCN(c3nc(OCC45CCCN4CCC5)nc4c(F)c(-c5cccc6cccc(Cl)c56)ncc34)C[C@@H]2CC#N)n1 [Compound 33]
0.01 (≈ 0.0131 µM) | 4.59 | 0.1 to 0.5 | CC1(c2noc(/C=C/C(=O)N3CCN(c4nc(OC[C@@]56CCCN5C[C@H](F)C6)nc5c(F)c(-c6cccc7cccc(Cl)c67)ncc45)C[C@@H]3CC#N)n2)CC1 [Compound 47]
49.5 (≈ 64 µM) | 3.42 | 0.01 to 0.1 | C[C@H]1CN(C/C=C/C(=O)N2CCN(c3nc(OC[C@@]45CCCN4C[C@H](F)C5)nc4c(F)c(-c5cccc6ccc(F)c(F)c56)ncc34)C[C@@H]2CC#N)C[C@H](C)O1 [Compound 240]
119 (≈ 158 µM) | 2.1 | < 0.01 | N#CC[C@H]1CN(c2nc(OCC34CCCN3CCC4)nc3c2CCN(c2cccc4cccc(Cl)c24)C3)CCN1C(=O)/C=C/CN1CC2COCC(C1)O2 [Compound 172]
114 (≈ 152 µM) | 3.23 | < 0.01 | CO[C@H]1CCN(C/C=C/C(=O)N2CCN(c3nc(OC[C@@]45CCCN4C[C@H](F)C5)nc4c(F)c(-c5cccc(Cl)c5C5CC5)ncc34)C[C@@H]2CC#N)C1 [Compound 287]
128 (≈ 175 µM) | 2.54 | 0.1 to 0.5 | CN1CC[C@@H]1/C=C/C(=O)N1CCN(c2nc(OC[C@@]34CCCN3C[C@H](F)C4)nc3c(F)c(-c4cccc(Cl)c4C(F)(F)F)ncc23)C[C@@H]1CC#N [Compound 311]
72.5 (≈ 96.1 µM) | 3.75 | 0.01 to 0.1 | C[C@H]1CN(C/C=C/C(=O)N2CCN(c3nc(OC[C@@]45CCCN4C[C@H](F)C5)nc4c(F)c(-c5cccc6cccc(F)c56)ncc34)C[C@@H]2CC#N)C[C@H](C)O1 [Compound 235]
115 (≈ 144 µM) | 2.5 | < 0.01 | N#CC[C@H]1CN(c2nc(OC[C@@]34CCCN3C[C@H](F)C4)nc3c(F)c(-c4cccc5cccc(Cl)c45)ncc23)CCN1C(=O)/C=C/CN1CCN(C2COC2)CC1 [Compound 325]
136 (≈ 181 µM) | 2.11 | < 0.01 | Cc1nccc(/C=C/C(=O)N2CCN(c3nc(OC[C@@]45CCCN4C[C@H](F)C5)nc4c(F)c(-c5nc(N)cc(C)c5C(F)(F)F)ncc34)C[C@@H]2CC#N)n1 [Compound 145]
0.01 (≈ 0.0128 µM) | 4.52 | 0.1 to 0.5 | N#CC[C@H]1CN(c2nc(OC[C@@]34CCCN3C[C@H](F)C4)nc3c(F)c(-c4cccc5cccc(Cl)c45)ncc23)CCN1C(=O)/C=C/c1nc(C2CC2)ncc1F [Compound 158]
60.1 (≈ 77.7 µM) | 2.94 | 0.01 to 0.1 | C[C@@H]1CN(C/C=C/C(=O)N2CCN(c3nc(OC[C@@]45CCCN4C[C@H](F)C5)nc4c(F)c(-c5cccc6ccc(F)c(F)c56)ncc34)C[C@@H]2CC#N)C[C@@H](C)O1 [Compound 241]
110 (≈ 146 µM) | 1.48 | < 0.01 | N#CC[C@H]1CN(c2nc(OCC34CCCN3CCC4)nc3c(F)c(-c4cccc5ccc(F)c(Cl)c45)ncc23)CCN1C(=O)/C=C/CN1C[C@H]2C[C@@H]1CO2 [Compound 183]
102 (≈ 140 µM) | – | – | Cc1cc(N)nc(C2Cc3nc(OC[C@@]45CCCN4C[C@H](F)C5)nc(N4CCN(C(=O)/C=C/C5CCN5C)[C@@H](CC#N)C4)c3CC2C)c1C(F)(F)F (stereo partly drawn) [Example 68, 2-((2S)-4-(7-(6-amino-4-methyl-3-(trifluoromethyl)pyridin-2-yl)-2-(((2R,7aS)-2-fluorohexahydro-1H-pyrrolizin-7a-yl)methoxy)-6-methyl-5,6,7,8-tetrahydroquinazolin-4-yl)-1-((E)-3-(1-methylazetidin-2-yl)acryloyl)piperazin-2-yl)acetonitrile]
89.1 (≈ 121 µM) | – | < 0.01 | Cc1nccc(/C=C/C(=O)N2CCN(c3nc(OCC45CCCN4CCC5)nc4c(F)c(-c5cccc6ccc(F)c(Cl)c56)ncc34)C[C@@H]2CC#N)n1 [Compound 155]
78.2 (≈ 103 µM) | – | – | Cc1cc(N)nc(C2Cc3nc(OC[C@@]45CCCN4C[C@H](F)C5)nc(N4CCN(C(=O)/C=C/CN5CCOCC5)[C@@H](CC#N)C4)c3CC2C)c1C(F)(F)F (stereo partly drawn) [Example 67, 2-((2S)-4-(7-(6-amino-4-methyl-3-(trifluoromethyl)pyridin-2-yl)-2-(((2R,7aS)-2-fluorotetrahydro-1H-pyrrolizin-7a(5H)-yl)methoxy)-6-methyl-5,6,7,8-tetrahydroquinazolin-4-yl)-1-((E)-4-morpholinobut-2-enoyl)piperazin-2-yl)acetonitrile]
106 (≈ 147 µM) | – | 0.01 to 0.1 | N#CC[C@H]1CN(c2nc(OCC34CCCN3CCC4)nc3c(F)c(-c4cccc5cccc(Cl)c45)ncc23)CCN1C(=O)/C=C/CN1CCOCC1 [Compound 149]
– | 2.98 | 0.01 to 0.1 | Cc1cc(N)nc(C2Cc3nc(OC[C@@]45CCCN4C[C@H](F)C5)nc(N4CCN(C(=O)/C=C/CN5CCOCC5)[C@@H](CC#N)C4)c3CC2C)c1C(F)(F)F (mixture of isomers) [Example 67, 2-((2S)-4-(7-(6-amino-4-methyl-3-(trifluoromethyl)pyridin-2-yl)-2-(((2R,7aS)-2-fluorotetrahydro-1H-pyrrolizin-7a(5H)-yl)methoxy)-6-methyl-5,6,7,8-tetrahydroquinazolin-4-yl)-1-((E)-4-morpholinobut-2-enoyl)piperazin-2-yl)acetonitrile]

SMILES | solubility kinetic at 2 h [1] [µg/mL] | logD [2] | IC50 [3] [µM]
N#CC[C@H]1CN(c2nc(OC[C@@]34CCCN3C[C@H](F)C4)nc3c(F)c(-c4cccc(Cl)c4C4CC4)ncc23)CCN1C(=O)/C=C/CN1C2COCC1C2 [Compound 278] | 66.6 (≈ 89.4 µM) | 3.3 | < 0.01
N#CC[C@H]1CN(c2nc(OC[C@@]34CCCN3C[C@H](F)C4)nc3c(F)c(-c4cccc(Cl)c4C(F)F)ncc23)CCN1C(=O)/C=C/CN1[C@@H]2CC[C@H]1COC2 [Compound 275] | 106 (≈ 137 µM) | 2.73 | < 0.01
Cc1c(Cl)cccc1-c1ncc2c(N3CCN(C(=O)/C=C/CN4[C@@H]5CC[C@H]4COC5)[C@@H](CC#N)C3)nc(OC[C@@]34CCCN3C[C@H](F)C4)nc2c1F [Compound 273] | 124 (≈ 169 µM) | 3.1 | < 0.01
